1 molecule from patent publication US12533408B2, “Treatment regimen for the treatment of autoimmune disorders” (Merck Patent GmbH, priority 2020, dated 2026) can be followed below.

One data set has as its system COVID-19. In words: COVID-19 cases in cladribine tablets treated MS patients (Merck KGaA Global Patient Safety Database). Format: in vivo, human. On the procedure: On this date, there were 46 patients with confirmed or suspected COVID-19 within the safety database. Patient age was available for 35 patients, with a range of 22-67 years. There were 26 females, 12 males, and 8 patients for whom gender was not reported. Cases were defined as confirmed if a confirmatory diagnostic test was reported as positive. If no confirmatory test was performed or reported, then cases were described as suspected. […] Cases were designated as serious if they fulfilled the criteria of hospitalized, considered to be life-threatening, or medically significant. In keeping with usual pharmacovigilance practices, outcome was classified as recovered, recovering, not recovered, fatal, or not reported.

A short description of data set [1]: Incidence rates of infections in the clinical trial program of cladribine tablets.

Structures are written as SMILES.

As to `Nc1nc(Cl)nc2c1ncn2[C@H]1C[C@H](O)[C@@H](CO)O1` [cladribine tablets, Cladribine], the “most recent lymphocyte count, median” value with COVID-19 (9/46 patients, min 0.24, max 1.2) came out at 0.7 G/L. In addition, in the data set on COVID-19 (21/46 patients), the “median time to onset of COVID-19 from last dose” value is reported as 180 days and the “range of time to onset of COVID-19 from last dose” value is 3 to 559 days. For the same molecule, in the data set with COVID-19 (confirmed cases), the “COVID-19 cases medically significant” value is 1 cases, the “COVID-19 cases requiring hospitalisation” value came out at 3 cases, the “COVID-19 outcome: Not resolved” value is 1 cases and the “COVID-19 outcome: Recovered” value came to 8 cases. The “COVID-19 outcome: Recovering” value in the data set on COVID-19 (confirmed cases) was determined as 2 cases. In addition, in the data set with COVID-19 (of 46 total cases), the “confirmed COVID-19 cases” value is on record as 18 cases and the “suspected COVID-19 cases” value stood at 28 cases. In the data set with COVID-19 (of approximately 19,000 treated, as of 29 June 2020), the “patients with confirmed or suspected COVID-19” value stood at 46 patients. The “lymphocyte count between most recent course and onset of COVID-19” value with COVID-19 (patient from the Netherlands) is 0.87 G/L. For the same molecule, in the data set on COVID-19 (suspected cases), the “COVID-19 cases medically significant” value amounted to 1 cases, the “COVID-19 cases requiring hospitalisation” value turned out to be 1 cases, the “COVID-19 outcome: Recovered” value was 6 cases and the “COVID-19 outcome: Recovering” value was 5 cases. Also, in the data set on COVID-19 (suspected or confirmed), the “COVID-19 cases that received mechanical ventilation” value is “None”, the COVID-19 deaths entry was “no deaths” and the “COVID-19 symptoms in the majority of patients” value was “mild to moderate respiratory symptoms”. In data set [1] (lymphopenia grade 0-2), this molecule showed an influenza incidence of 2.75 cases per 100 PY. In data set [1] (lymphopenia grade 3-4), the influenza incidence is given as 3.35 /100 PY.
